Test [1] concerns AVR1675 mAb. It is filed as binding, mouse.
For test [2], the system named is mAb AVR1675. The format is binding, mouse.
Test [3] concerns the target AVR1675 (LFG2 3F3:3D10 IgG1 kappa) (mouse). As to the kind of experiment: ELISA. (In general: In an ELISA, binding on a coated surface is turned into a signal by an enzyme label.)

“And” between values parts separate entries of the source, which are not always exact repeats. Equal values may be shown once. Read-outs that look alike come from different tables or passages of the source. Where a SMILES comes first, the peptide text is derived from it. Where no end group is shown, it is not given here. The star is where a group is joined. Biotin = O=C1N[C@H]2[C@H](CS[C@H]2CCCCC(=O)*)N1 Bounds are passed on as bounds.

Chain of AVR1675 (LFG2 3F3:3D10 IgG1 kappa) (mouse) (heavy, as listed by the source): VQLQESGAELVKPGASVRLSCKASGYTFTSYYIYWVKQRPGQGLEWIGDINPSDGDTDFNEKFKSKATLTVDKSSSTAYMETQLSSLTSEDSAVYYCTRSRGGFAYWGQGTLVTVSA

Regarding TVRD EP L [φE12], the “Phage ELISA Reactivity (class)” value in test [1] is on record as “High (OD 1.70) (key: High = OD > 1.0; Intermediate = OD 0.5–1.0; Low = OD < 0.5)”.

The term Kd denotes the constant that tells how readily two partners part at equilibrium. Consider `CC[C@H](C)[C@H](NC(=O)[C@H](CC(N)=O)NC(=O)[C@@H]1CCCN1)C(=O)N[C@@H](C)C(=O)N[C@@H](CCC(=O)O)C(=O)N[C@@H](CCC(N)=O)C(=O)N[C@@H](Cc1ccc(O)cc1)C(=O)N[C@H](C(=O)N[C@@H](Cc1c[nH]cn1)C(=O)N[C@@H](CCC(N)=O)C(=O)N[C@@H](CC(=O)O)C(=O)N[C@@H](CCC(=O)O)C(=O)N[C@H](C(=O)N[C@@H](Cc1ccc(O)cc1)C(=O)N[C@@H](CCC(=O)O)C(=O)N[C@@H](CCC(N)=O)C(=O)N[C@H](C(=O)N[C@@H](Cc1c[nH]cn1)C(=O)N[C@@H](CO)C(=O)N[C@@H](CCCCN)C(=O)NCC(=O)N[C@@H](CC(C)C)C(=O)N[C@@H](Cc1ccc(O)cc1)C(=O)N[C@H](C(=O)N1CCC[C@H]1C(=O)N[C@@H](CCC(=O)O)C(=O)N[C@@H](CO)C(=O)N[C@@H](CCCNC(=N)N)C(=O)NCC(=O)NCC(=O)NCC(=O)N[C@@H](CO)C(=O)N[C@@H](CCCCNC(=O)CCCC[C@@H]1SC[C@@H]2NC(=O)N[C@@H]21)C(=O)O)C(C)C)C(C)C)[C@@H](C)CC)[C@@H](C)O` [Native LF extended sequence], for which, in test [2], the “% R of Consensus” value was 14% and the “Response (nm)” value was found to be 0.7024 nm. In addition, in test [2] (read-out: KD (M) *), the Kd is above 1e-07 M.

For the molecule `CC[C@H](C)[C@H](NC(=O)[C@H](CCC(=O)O)NC(=O)[C@H](CC(=O)O)NC(=O)[C@H](CCCCN)NC(=O)[C@H](Cc1ccccc1)NC(=O)[C@@H](N)[C@@H](C)O)C(=O)NCC(=O)NCC(=O)NCC(=O)N[C@@H](CO)C(=O)N[C@@H](CCCCNC(=O)CCCC[C@@H]1SC[C@@H]2NC(=O)N[C@@H]21)C(=O)O` [φC8-derived Reference Sequence] (H-TFKDEIGGGSK(Biotin)-OH; N-terminus and C-terminus assumed), in test [2], the “% R of Consensus” value was 100%; the “Binding relative to the LF-sequence derived oligopeptides” value is recorded as “seven-fold higher binding”; the “R (binding response, running text)” value was 4.84 nm; the “Response (nm)” value is listed as 4.8387 nm. For the same molecule, the Kd in test [2] (read-out: KD (M) *) worked out at 1.39e-08 M. Moreover, the Kd in test [2] (read-out: KD (equilibrium affinity constant)) is 9.97e-09 M.

Turning to TVRD D Q I [φD7], the “Phage ELISA Reactivity (class)” value in test [1] was “High (OD 1.78) (key: High = OD > 1.0; Intermediate = OD 0.5–1.0; Low = OD < 0.5)”.

With `CC[C@H](C)[C@H](NC(=O)[C@H](CCC(=O)O)NC(=O)[C@H](CC(=O)O)NC(=O)[C@H](CCC(N)=O)NC(=O)[C@H](Cc1c[nH]cn1)NC(=O)[C@@H](N)[C@@H](C)O)C(=O)N[C@@H](Cc1ccc(O)cc1)C(=O)N[C@@H](CCC(=O)O)C(=O)N[C@@H](CCC(N)=O)C(=O)N[C@@H](CCCCNC(=O)CCCC[C@@H]1SC[C@@H]2NC(=O)N[C@@H]21)C(=O)O` [Native LF core sequence] (H-THQDEIYEQK(Biotin)-OH), in test [2], the “% R of Consensus” value is on record as 14% and the “Response (nm)” value is on record as 0.7024 nm. In addition, the Kd in test [2] (read-out: KD (M) *) was above 1e-07 M.

Take TYKDDIRGGGS (not fully specified) [phage-displayed peptide T-Y-K-D-D-I-R (phage clones φB5 and φD2)]: the OD (phage ELISA reactivity) in test [3] was 1.65 OD and 1.78 OD.

In test [3], TVRDEPLGGGS (not fully specified) [phage-displayed peptide T-V-R-D-E-P-L (phage clone φE12)] came in with an OD (phage ELISA reactivity) of 1.7 OD.

Consider TFKDDLFGGGS (not fully specified) [phage-displayed peptide T-F-K-D-D-L-F (phage clone φC7)], for which, in test [3], the OD (phage ELISA reactivity) worked out at 1.56 OD.

As for TYLDDLYGGGS (not fully specified) [phage-displayed peptide T-Y-L-D-D-L-Y (phage clones φB6 and φD11)], in test [3], the OD (phage ELISA reactivity) is 1.77 OD and 1.7 OD.

The molecule TVRDDQIGGGS (not fully specified) [phage-displayed peptide T-V-R-D-D-Q-I (phage clone φD7)] returned an OD (phage ELISA reactivity) in test [3] of 1.78 OD.

The molecule TFLDDAPGGGS (not fully specified) [phage-displayed peptide T-F-L-D-D-A-P (phage clone φE2)] showed an OD (phage ELISA reactivity) in test [3] of 1.22 OD.

For TFKDDGYGGGS (not fully specified) [phage-displayed peptide T-F-K-D-D-G-Y (phage clone φD4)], in test [3], the OD (phage ELISA reactivity) came out at 0.08 OD.

In the case of TFRDEPMGGGS (not fully specified) [phage-displayed peptide T-F-R-D-E-P-M (phage clone φB9)], in test [3], the OD (phage ELISA reactivity) amounted to 1.71 OD.

For the molecule TFKDDIHGGGS (not fully specified) [phage-displayed peptide T-F-K-D-D-I-H (phage clone φC9)], the OD (phage ELISA reactivity) in test [3] worked out at 1.33 OD.

In test [3], TWRDDIPGGGS (not fully specified) [phage-displayed peptide T-W-R-D-D-I-P (phage clone φD8)] had an OD (phage ELISA reactivity) of 0.79 OD.

Molecule TVLDDVAGGGS (not fully specified) [phage-displayed peptide T-V-L-D-D-V-A (phage clone φC2)] gave an OD (phage ELISA reactivity) in test [3] of 0.36 OD.

In test [3], TYRDDPPGGGS (not fully specified) [phage-displayed peptide T-Y-R-D-D-P-P (phage clone φE5)] gave an OD (phage ELISA reactivity) of 1.55 OD.

The values are drawn from PMC5535168 (Toxins, 2017).
